From US20130315829A1, “Compounds and Methods for Detecting Reactive Oxygen Species” (The Regents of the University of California, priority 2010, published 2013)

Assays:
FVB-luc mice [1] = assay: In vivo antioxidant experiments in FVB-luc mice; set-up: species or system mouse; conditions: NAC 0.2 mg i.p. then PCL-1 i.p., total photon flux over one hour
Excerpt: (§1) A Xenogen IVIS Spectrum instrument (Caliper Life Sciences, Hopkinton, Mass.) was used for bioluminescent imaging in all in vivo experiments. Phosphate Buffered Saline (PBS) was purchased from Thermo Fisher Scientific (Waltham, Mass.). Isoflurane was purchased from Phoenix Pharmaceuticals, Inc. (St. Joseph, Mo.), and sterile DMSO was purchased from Sigma-Aldrich (St. Louis, Mo.). Medical grade oxygen was purchased from Praxair (Danbury, Conn.).
(§2) Animals. FVB-luc (FVB-Tg(CAG-luc,-GFP)L2G85Chco/J) mice were obtained from UC Davis, and SHO mice were obtained from Charles River Labs. Mice were single or group-housed on a 12:12 light-dark cycle at […] with free access to food and water. All studies were approved and performed according to the guidelines of the Animal Care and Use Committee of the University of California, Berkeley.
Adult FVB-luc mice were anesthetized with isoflurane and injected with N-acetylcysteine (0.2 mg, 100 μL PBS, pH 7-8), followed immediately by an i.p. injection of PCL-1 (5 μmol, 50 μL 1:1 DMSO:PBS). Control mice were injected with 100 μL PBS and PCL-1.
(§3) PCL-1 was applied to molecular imaging of H2O2 in living animals. Initial studies utilized FVB-luc mice that ubiquitously express firefly luciferase along with exogenous peroxide addition. […]

LNCaP-luc tumors = assay: LNCaP-luc tumor xenograft model in SHO mice; type: in vivo, mouse
Method: Animals. […] Mice were single or group-housed on a 12:12 light-dark cycle at 71° C. with free access to food and water.
Tumor xenografts were created via i.p. injection of 3×10̂6 LNCaP-luc cells (100 μL, 1:1 PBS:Matrigel) in adult SHO mice. Tumor size was monitored by injecting 0.5-5 μmol D-lucifeirn (potassium salt, Gold Biotech., St. Louis, Mo.) in PBS. At least two weeks post-inoculation, tumors were injected with PCL-1, valeryl luciferin, testosterone propionate and N-acetylcysteine in various combinations to obtain the experimental data. On day one of the experiments, mice were injected with either PCL-1 (0.5 μmol) or valeryl luciferin (0.44 μmol) and imaged for 45 minutes using an IVIS spectrum. To determine the effect of testosterone on the tumors, the mice were injected with testosterone propionate (3 mg in 50 μL sesame oil) on day 2, followed 1.5 hours later by an injection of PCL-1 (0.5 μmol) or valeryl luciferin (0.44 μmol). Controls for the testosterone experiment were completed by injecting sesame oil (50 μL) on day 2, followed by the probe (0.5 μmol) or valeryl luciferin (0.44 μmol) 1.5 hours later. Additional experiments with N-acetylcysteine were completed by injecting the mice with testosterone propionate (3 mg in 50 μL sesame oil) on day 2, followed 1.5 hours later by injections of N-acetylcysteine (0.2 mg in 100 μL PBS) and PCL-1 (0.5 μmol). Day 2 injections were followed by 45 minutes of imaging.
To study the stimulatory effects of testosterone and H2O2 production in prostate cancer in living animals, an intraperitoneal (i.p.) LNCaP-luc tumor xenograft model was developed in immunodeficient severe combined immunodeficiency hairless outbred (SHO) mice. To determine the baseline levels of H2O2 generation in the tumors as well as alterations in H2O2 fluxes over 24 hours, mice were injected with PCL-1 on Day 1 and with sesame oil, a vehicle used for all experiments, and PCL-1 after 24 hours on Day 2. […] The effects of testosterone (in the form of testosterone propionate) on H2O2 production were tested within the prostate cancer tumors. For these experiments, mice were injected with PCL-1 on Day 1 and the baseline signal was measured. On Day 2, the mice were injected either with testosterone propionate and then PCL-1, or empty vehicle and PCL-1.
These experiments were performed by injecting mice on Day 2 with testosterone propionate, followed by serial application of NAC and PCL-1.

[2] = In vitro ROS selectivity test with purified firefly luciferase: H2O2; type: biochemical; conditions: PCL-1 5 μM, H2O2 100 μM, over an hour, then firefly luciferase; light integrated over 45 minutes
Method: (§4) Millipore water was used to prepare all aqueous solutions. Measurements for in vitro tests were performed in 50 mM Tris buffer, pH 7.4, with 10 mM MgCl2, 0.1 mM ZnCl2, and 2 mM ATP at 37° C. Bioluminescent measurements for in vitro tests were recorded using a Molecular Devices SpectraMax M2 plate reader (Sunnyvale, Calif.). Samples for bioluminescent measurements were placed in white, opaque 96-well plates, which were purchased from Corning Inc. (Corning, N.Y.). ATP was purchased from MP Biomedicals (Solon, Ohio), and luciferase was purchased from Promega (Madison, Wis.).
(§5) Various reactive oxygen species (ROS, 100 μM) were administered to PCL-1 (5 μM) in the Tris buffer as follows. Hydrogen peroxide (H2O2), tert-butyl hydroperoxide (TBHP), and hypochlorite (OCl^−) were delivered from 30%, 70%, and 6.15% aqueous solutions, respectively. […]
(§6) Initial experiments tested the ability of PCL-1 to detect H2O2 in a selective and concentration-dependent manner. […] PCL-1 was incubated with various ROS for 5-60 minutes followed by addition of firefly luciferase, and then light production was measured over 45 minutes to determine whether luciferin was produced during the ROS incubation period. The total normalized photon flux was calculated by dividing each total photon flux by the zero timepoint total photon flux for each run to allow a direct comparison between various ROS. […]

LNCaP-luc cells [3] = assay: Bioluminescence of LNCaP-luc cells with PCL-1 and exogenous H2O2; type: cell-based, human; conditions: PCL-1 50 μM
Method: A Xenogen IVIS Spectrum instrument (Caliper Life Sciences, Hopkinton, Mass.) was used for bioluminescent imaging in all ex vivo experiments. LNCaP-luc cells (kindly provided by Chris Contag, Stanford University) were cultured in Dulbecco's Modified Eagle Medium (DMEM) containing 10% Fetal Bovine Serum (FBS). Cells were split twice per week. Prior to assaying, cells were passed and plated (4×10^4 cells/well) in black 96-well plates with clear bottoms (Becton Dickinson and Company, Franklin Lakes, N.J.). Two days after being plated, once the cells were ca. 95% confluent, the medium was removed and PCL-1 (2.5% final DMSO concentration) and H2O2 (2.5-500 μM final concentrations) in DMEM (−FBS) were added. The plate was immediately imaged for 2 hours. For stimulation experiments, the cells (ca. 95 confluent) were incubated with paraquat (0 or 500 μM, 100 μL DMEM+10% FBS) for 24 hours prior to the addition of PCL-1 (50 μM) with or without catalase (1×10̂4 U/L).
With data showing that PCL-1 is a selective and sensitive bioluminescent reporter for H2O2 in aqueous solution, this system was applied to imaging changes in H2O2 levels in cell culture. […] To achieve this goal, PCL-1 and H2O2 were added to LNCaP-luc cells stably transfected with the firefly luciferase gene. In the absence of H2O2, the bioluminescent signal from the cells was negligible. In contrast, addition of 2.5 to 500 μM H2O2 triggers a linear increase, up to 250 μM, in the total observed photon flux (FIG. 3). The 2.5 μM detection limit for H2O2 is well within estimated concentration ranges of endogenously produced H2O2 fluxes.
Total photon flux, integrated over 2 h, from LNCaP-luc cells with PCL-1 (50 μM) and H2O2 (2.5-500 μM) in DMEM. All values show statistically significant differences (p<0.001) except between 250 and 500 μM H2O2. (b) Total photon flux, integrated over 2 h, from LNCaP-luc cells incubated with paraquat (0 or 500 μM) for 24 h, followed by addition of PCL-1 (50 μM)±catalase (1×10̂4 U/L). […]

FVB-luc mice [4] = assay: In vivo exogenous H2O2 experiments in FVB-luc mice; set-up: species or system mouse; conditions: PCL-1 i.p. 0.5 μmol
Excerpt: as §1, §2
Adult FVB-luc mice were anesthetized with isoflurane and injected (i.p.) with PCL-1 (0.5 μmol, 50 μL 1:1 DMSO:PBS), followed immediately by an i.p. injection of H2O2 (0.0375, 0.15, 0.6, and 2.4 μmol in 100 μL PBS). Control mice were injected with PCL-1 and 100 μL PBS.
as §3

[5] = In vitro ROS selectivity test with purified firefly luciferase: other ROS; type: biochemical; conditions: PCL-1 5 μM, ROS 100 μM, 5-60 minutes, then firefly luciferase
Method: as §4, §5, §6

LNCaP-luc cells [6] = assay: Paraquat stimulation of endogenous H2O2 in LNCaP-luc cells, with or without catalase; type: cell-based, human
Method: A Xenogen IVIS Spectrum instrument (Caliper Life Sciences, Hopkinton, Mass.) was used for bioluminescent imaging in all ex vivo experiments. […] Cells were split twice per week. Prior to assaying, cells were passed and plated (4×10^4 cells/well) in black 96-well plates with clear bottoms (Becton Dickinson and Company, Franklin Lakes, N.J.). Two days after being plated, once the cells were ca. 95% confluent, the medium was removed and PCL-1 (2.5% final DMSO concentration) and H2O2 (2.5-500 μM final concentrations) in DMEM (−FBS) were added. The plate was immediately imaged for 2 hours. For stimulation experiments, the cells (ca. 95 confluent) were incubated with paraquat (0 or 500 μM, 100 μL DMEM+10% FBS) for 24 hours prior to the addition of PCL-1 (50 μM) with or without catalase (1×10̂4 U/L).
To determine whether PCL-1 could detect endogenously produced H2O2 in living cells, LNCaP-luc cells were incubated with 500 μM paraquat for 24 hours, as previous work establishes that paraquat triggers elevations in intracellular H2O2 through disruption of the mitochondrial electron transport chain. Following paraquat stimulation, the LNCaP-luc cells were loaded with PCL-1 and the subsequent bioluminescent signal was detected.
Because luciferin is a cell-permeable small molecule, two possible modes of action for PCL-1 are (i) reaction of this probe with H2O2 in the extracellular medium followed by cellular uptake of the free luciferin product, or (ii) reaction of PCL-1 with intracellular H2O2 to generate luciferin within cells. To probe whether PCL-1 was reacting with H2O2 in the intra- or extracellular space, catalase was added as a cell-impermeable scavenger for extracellular H2O2 with paraquat stimulation.

Compound: CC(=O)N[C@@H](CS)C(=O)O [NAC, N-acetylcysteine]
- bioluminescent signal of NAC-treated animals compared to vehicle control animals (FVB-luc mice [1]): significantly reduced bioluminescent signal
- bioluminescent signal in testosterone-stimulated animals after NAC treatment (LNCaP-luc tumors; SHO mice with LNCaP-luc tumors, testosterone propionate 3 mg, then NAC 0.2 mg and PCL-1 0.5 μmol): reduction in bioluminescent signal in testosterone-stimulated animals back to baseline levels

Compound: O=C(O)[C@H]1CSC(c2nc3ccc(OCc4ccc(B(O)O)cc4)cc3s2)=N1 [PCL-1, (S)-2-(6-(4-Boronobenzyloxy)benzo[d]thiazol-2-yl)-4,5-dihydrothiazole-4-carboxylic acid]
- increase in bioluminescent signal (total normalized photon flux) on addition of H2O2 [2]: approximately seven-fold
- detection limit for H2O2 (LNCaP-luc cells [3]): 2.5 µM
- H2O2 concentration up to which total observed photon flux increases linearly (LNCaP-luc cells [3]; H2O2 2.5 to 500 μM, integrated over 2 h): up to 250 μM
- bioluminescent signal from the cells in the absence of H2O2 (LNCaP-luc cells [3]; no H2O2): negligible
- bioluminescence of mice treated only with PCL-1, no added peroxide (FVB-luc mice [4]): modest but measurable bioluminescence
- integrated total photon flux as a function of the H2O2 concentration (FVB-luc mice [4]; then H2O2 i.p., integrated over one hour): dose-dependent increase in signal
- change in basal bioluminescent signal from Day 1 to Day 2 (LNCaP-luc tumors; SHO mice with LNCaP-luc tumors, PCL-1 0.5 μmol Day 1, sesame oil and PCL-1 Day 2): no change in basal bioluminescent signal
- increase in bioluminescent signal on reaction with the other ROS [5]: little to no increase in signal

Compound: O=C(O)[C@H]1CSC(c2nc3ccc(O)cc3s2)=N1 [luciferin]
- time after injection at which the signal peak is reached (LNCaP-luc tumors; LNCaP-luc cells, peak before first imaging timepoint): < 1 min

Compound: C[n+]1ccc(-c2cc[n+](C)cc2)cc1 [paraquat, reference compound]
- PCL-1 derived luminescence compared to unstimulated control cells (LNCaP-luc cells [6]; 500 μM paraquat for 24 hours, then PCL-1 50 μM): patently higher

Compound: CCC(=O)O[C@H]1CC[C@H]2[C@@H]3CCC4=CC(=O)CC[C@]4(C)[C@H]3CC[C@]12C [testosterone propionate]
- increase in total photon flux compared to vehicle control mice (LNCaP-luc tumors; SHO mice with LNCaP-luc tumors, testosterone propionate 3 mg in sesame oil, PCL-1 0.5 μmol 1.5 h later): approximately 41%

Compound: catalase
- bioluminescence signal with catalase plus paraquat compared to paraquat alone (LNCaP-luc cells [6]; 500 μM paraquat 24 h, PCL-1 50 μM, catalase 1×10^4 U/L): decrease in bioluminescence signal
- PCL-1 bioluminescence of catalase-treated cells compared to untreated specimens (LNCaP-luc cells [6]; no paraquat, PCL-1 50 μM, catalase 1×10^4 U/L): reduces the level of PCL-1 bioluminescence
